From patent US20190367516A1 (Bayer Pharma Aktiengesellschaft, priority 2015, published 2019) come the findings set out here.

The target of assay [1] is T1, human M2 receptor (Homo sapiens, UniProt P08172).
T1 sequence (P08172 1-466): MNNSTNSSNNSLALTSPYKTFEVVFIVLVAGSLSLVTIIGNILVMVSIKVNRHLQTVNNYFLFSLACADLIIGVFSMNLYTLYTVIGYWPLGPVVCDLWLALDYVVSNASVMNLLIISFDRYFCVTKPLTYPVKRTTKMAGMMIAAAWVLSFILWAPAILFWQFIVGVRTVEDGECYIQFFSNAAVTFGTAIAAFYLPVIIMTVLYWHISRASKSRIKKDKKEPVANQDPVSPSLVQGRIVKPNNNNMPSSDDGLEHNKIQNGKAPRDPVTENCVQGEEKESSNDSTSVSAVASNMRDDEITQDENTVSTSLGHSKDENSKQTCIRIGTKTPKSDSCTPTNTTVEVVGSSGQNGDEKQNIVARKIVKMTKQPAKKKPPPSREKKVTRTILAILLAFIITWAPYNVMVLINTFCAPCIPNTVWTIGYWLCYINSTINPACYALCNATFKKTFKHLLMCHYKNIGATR
It counts as cell-based. As to conditions: shift in the acetylcholine dose-response curve (Allosteric EC50 shift, GraphPad PRISM); α >1 = positive cooperativity.

Assay [2] has as its target T1, human M2 receptor. The conditions noted are these: for EC50: Receptor activity EC50, M2-GIRK1/4 activation test, acetylcholine at EC20, allosteric potency, in some cases mean values from two or more determinations; for Emax: read-out: Efficiency.

SMILES strings stand for the structures.

Regarding `CC[C@H](NC(=O)c1cn(-c2ccc(F)cc2F)c2nc(N3CC=CC3=O)ccc2c1=O)C(F)(F)F` [Example 286, 1-(2,4-Difluorophenyl)-4-oxo-7-(2-oxo-2,5-dihydro-1H-pyrrol-1-yl)-N-[(2S)-1,1,1-trifluorobutan-2-yl]-1,4-dihydro-1,8-naphthyridine-3-carboxamide], at human M2 receptor [1], the “Cooperativity (alpha factor)” value was determined as 3. Besides, at human M2 receptor [2], the concentration for a half-maximal effect (EC50) (in general, the concentration that produces a half-maximal response) was 94 nM.

For the compound `CC[C@@H](NC(=O)c1cn(-c2c(F)cccc2Cl)c2nc(N3C[C@@H](O)CC3=O)ccc2c1=O)C(F)(F)F` [Example 307, 1-(2-Chloro-6-fluorophenyl)-7-[(4S)-4-hydroxy-2-oxopyrrolidin-1-yl]-4-oxo-N-[(2R)-1,1,1-trifluorobutan-2-yl]-1,4-dihydro-1,8-naphthyridine-3-carboxamide], the “Cooperativity (alpha factor)” value on human M2 receptor [1] amounted to 36. Besides, the midpoint of the response on human M2 receptor [2], the EC50, lay at 14 nM.

Turning to `CC[C@@H](NC(=O)c1cn(-c2ccc(F)cc2F)c2nc(N3CCNC3=O)ccc2c1=O)C(F)(F)F` [Example 320, 1-(2,4-Difluorophenyl)-4-oxo-7-(2-oxoimidazolidin-1-yl)-N-[(2R)-1,1,1-trifluorobutan-2-yl]-1,4-dihydro-1,8-naphthyridine-3-carboxamide], the “Cooperativity (alpha factor)” value on human M2 receptor [1] amounted to 6. At human M2 receptor [2], this compound displayed an EC50 of 130 nM.

For the compound `C[C@H](NC(=O)c1cn(-c2c(F)cccc2F)c2nc(N3C[C@@H](O)CC3=O)ccc2c1=O)C(F)(F)F` [Example 329, 1-(2,6-Difluorophenyl)-7-[(4S)-4-hydroxy-2-oxopyrrolidin-1-yl]-4-oxo-N-[(2S)-1,1,1-trifluoropropan-2-yl]-1,4-dihydro-1,8-naphthyridine-3-carboxamide], on human M2 receptor [1], the “Cooperativity (alpha factor)” value was determined as 16. For the same compound, the response on human M2 receptor [2] was half-maximal at 76 nM (EC50).

For the compound `CC[C@H](NC(=O)c1cn(-c2c(F)cc(F)cc2F)c2nc(N3C[C@@](C)(O)C[C@H]3C)ccc2c1=O)C(F)(F)F` [Example 331, 7-[(2R,4S)-4-Hydroxy-2,4-dimethylpyrrolidin-1-yl]-4-oxo-N-[(2S)-1,1,1-trifluorobutan-2-yl]-1-(2,4,6-trifluorophenyl)-1,4-dihydro-1,8-naphthyridine-3-carboxamide], the “Cooperativity (alpha factor)” value at human M2 receptor [1] is on record as 7. This compound also yielded an EC50 at human M2 receptor [2] of 33 nM.

On to `CC[C@H](NC(=O)c1cn(-c2c(F)cccc2F)c2nc(N3C[C@@H](O)CC3=O)ccc2c1=O)C(F)(F)F` [Example 333, 1-(2,6-Difluorophenyl)-7-[(4S)-4-hydroxy-2-oxopyrrolidin-1-yl]-4-oxo-N-[(2S)-1,1,1-trifluorobutan-2-yl]-1,4-dihydro-1,8-naphthyridine-3-carboxamide], for which, on human M2 receptor [1], the “Cooperativity (alpha factor)” value was 28. In addition, at human M2 receptor [2], the midpoint of the response, the EC50, lay at 31 nM and the Emax worked out at 94.5%.

For the compound `C[C@H](NC(=O)c1cn(-c2c(F)cc(F)cc2Cl)c2nc(N3CCC(C)(C)C3=O)ccc2c1=O)C(F)(F)F` [Example 335, 1-(2-Chloro-4,6-difluorophenyl)-7-(3,3-dimethyl-2-oxopyrrolidin-1-yl)-4-oxo-N-[(2S)-1,1,1-trifluoropropan-2-yl]-1,4-dihydro-1,8-naphthyridine-3-carboxamide], the “Cooperativity (alpha factor)” value on human M2 receptor [1] stood at 7. This compound also yielded an EC50 at human M2 receptor [2] of 23 nM.

Turning to `CC[C@H](NC(=O)c1cn(-c2c(F)cc(F)cc2Cl)c2nc(N3CCC(C)(C)C3=O)ccc2c1=O)C(F)(F)F` [Example 336, 1-(2-Chloro-4,6-difluorophenyl)-7-(3,3-dimethyl-2-oxopyrrolidin-1-yl)-4-oxo-N-[(2S)-1,1,1-trifluorobutan-2-yl]-1,4-dihydro-1,8-naphthyridine-3-carboxamide], the “Cooperativity (alpha factor)” value at human M2 receptor [1] is on record as 13. Further, it took 12 nM to reach a half-maximal effect at human M2 receptor [2] (EC50).

`O=C(N[C@@H](C1CC1)C(F)(F)F)c1cn(-c2c(F)cc(F)cc2Cl)c2nc(N3C[C@@H](O)CC3=O)ccc2c1=O` [Example 338, 1-(2-Chloro-4,6-difluorophenyl)-N-[(1 S)-1-cyclopropyl-2,2,2-trifluoroethyl]-7-[(4S)-4-hydroxy-2-oxopyrrolidin-1-yl]-4-oxo-1,4-dihydro-1,8-naphthyridine-3-carboxamide]: on human M2 receptor [1], the “Cooperativity (alpha factor)” value came to 24. This compound came in with an EC50 at human M2 receptor [2] of 7 nM.

`C[C@@H](COC(F)(F)F)NC(=O)c1cn(-c2c(F)cc(F)cc2F)c2nc(N3C[C@@H](O)CC3=O)ccc2c1=O` [Example 339, 7-[(4S)-4-Hydroxy-2-oxopyrrolidin-1-yl]-4-oxo-N-[(2S)-1-(trifluoromethoxy)propan-2-yl]-1-(2,4,6-trifluorophenyl)-1,4-dihydro-1,8-naphthyridine-3-carboxamide]: the “Cooperativity (alpha factor)” value on human M2 receptor [1] is listed as 26. Besides, on human M2 receptor [2], the response was half-maximal at 44 nM (EC50).

On to `CC[C@H](NC(=O)c1cn(-c2c(F)cc(F)cc2Cl)c2nc(N3CCNC3=O)ccc2c1=O)C(F)(F)F` [Example 340, 1-(2-Chloro-4,6-difluorophenyl)-4-oxo-7-(2-oxoimidazolidin-1-yl)-N-[(2S)-1,1,1-trifluorobutan-2-yl]-1,4-dihydro-1,8-naphthyridine-3-carboxamide], for which the “Cooperativity (alpha factor)” value at human M2 receptor [1] is 22. The compound further registered an EC50 on human M2 receptor [2] of 10 nM.

With `O=C(NC1(C(F)(F)F)CCCC1)c1cn(-c2c(F)cc(F)cc2F)c2nc(N3C[C@@H](O)[C@H](O)C3)ccc2c1=O` [Example 350, 7-[(3R,4R)-3,4-Dihydroxypyrrolidin-1-yl]-4-oxo-N-[1-(trifluoromethyl)cyclopentyl]-1-(2,4,6-trifluorophenyl)-1,4-dihydro-1,8-naphthyridine-3-carboxamide], the “Cooperativity (alpha factor)” value at human M2 receptor [1] turned out to be 42. At human M2 receptor [2], this compound yielded an EC50 of 6 nM.

In the case of `CC(C)(C)[C@@H](NC(=O)c1cn(-c2c(F)cc(F)cc2F)c2nc(N3C[C@@H](O)CC3=O)ccc2c1=O)C(F)(F)F` [Example 357, 7-[(4S)-4-Hydroxy-2-oxopyrrolidin-1-yl]-4-oxo-N-[(2R)-1,1,1-trifluoro-3,3-dimethylbutan-2-yl]-1-(2,4,6-trifluorophenyl)-1,4-dihydro-1,8-naphthyridine-3-carboxamide], the “Cooperativity (alpha factor)” value at human M2 receptor [1] was found to be 63. Also, the EC50 at human M2 receptor [2] was 4 nM.

Turning to `O=C(NC12CC(C1)C2)c1cn(-c2c(F)cc(F)cc2F)c2nc(N3C[C@@H](O)CC3=O)ccc2c1=O` [Example 358, N-(Bicyclo[1.1.1]pent-1-yl)-7-[(4S)-4-hydroxy-2-oxopyrrolidin-1-yl]-4-oxo-1-(2,4,6-trifluorophenyl)-1,4-dihydro-1,8-naphthyridine-3-carboxamide], the “Cooperativity (alpha factor)” value at human M2 receptor [1] turned out to be 31. The compound further had an EC50 on human M2 receptor [2] of 24 nM.

On to `O=C(N[C@@H](C1CC1)C(F)(F)F)c1cn(-c2c(F)cc(F)cc2F)c2nc(N3CCN(CCO)C3=O)ccc2c1=O` [Example 363, N-[(1 S)-1-Cyclopropyl-2,2,2-trifluoroethyl]-7-[3-(2-hydroxyethyl)-2-oxoimidazolidin-1-yl]-4-oxo-1-(2,4,6-trifluorophenyl)-1,4-dihydro-1,8-naphthyridine-3-carboxamide], for which the “Cooperativity (alpha factor)” value at human M2 receptor [1] was found to be 28. The EC50 at human M2 receptor [2] worked out at 45 nM.

`O=C(N[C@@H](C1CC1)C(F)(F)F)c1cn(-c2c(F)cc(F)cc2F)c2nc(N3CCCN(CCO)C3=O)ccc2c1=O` [Example 364, N-[(1 S)-1-Cyclopropyl-2,2,2-trifluoroethyl]-7-[3-(2-hydroxyethyl)-2-oxotetrahydropyrimidin-1(2H)-yl]-4-oxo-1-(2,4,6-trifluorophenyl)-1,4-dihydro-1,8-naphthyridine-3-carboxamide]: the “Cooperativity (alpha factor)” value on human M2 receptor [1] was 25. Besides, the EC50 on human M2 receptor [2] came to 16 nM.

Turning to `CC[C@H](NC(=O)c1cn(-c2c(F)cc(F)cc2F)c2nc(N3CCCN(CCO)C3=O)ccc2c1=O)C(F)(F)F` [Example 365, 7-[3-(2-Hydroxyethyl)-2-oxotetrahydropyrimidin-1(2H)-yl]-4-oxo-N-[(2S)-1,1,1-trifluorobutan-2-yl]-1-(2,4,6-trifluorophenyl)-1,4-dihydro-1,8-naphthyridine-3-carboxamide], the “Cooperativity (alpha factor)” value at human M2 receptor [1] was 20. Moreover, at human M2 receptor [2], it took 21 nM to reach a half-maximal effect (EC50).

For `O=C(NC12CC(C1)C2)c1cn(-c2c(F)cc(F)cc2F)c2nc(N3C[C@@H](O)[C@H](O)C3)ccc2c1=O` [Example 366, N-(Bicyclo[1.1.1]pent-1-yl)-7-[(3R,4R)-3,4-dihydroxypyrrolidin-1-yl]-4-oxo-1-(2,4,6-trifluorophenyl)-1,4-dihydro-1,8-naphthyridine-3-carboxamide], at human M2 receptor [1], the “Cooperativity (alpha factor)” value is listed as 36. This compound came in with an EC50 at human M2 receptor [2] of 35 nM.

Consider `CC(C)(C)[C@H](NC(=O)c1cn(-c2c(F)cc(F)cc2F)c2nc(N3C[C@@H](O)[C@H](O)C3)ccc2c1=O)C(F)(F)F` [Example 369, 7-[(3R,4R)-3,4-Dihydroxypyrrolidin-1-yl]-4-oxo-N-[(2S)-1,1,1-trifluoro-3,3-dimethylbutan-2-yl]-1-(2,4,6-trifluorophenyl)-1,4-dihydro-1,8-naphthyridine-3-carboxamide], for which the “Cooperativity (alpha factor)” value at human M2 receptor [1] is reported as 39. Further, on human M2 receptor [2], the EC50 turned out to be 8 nM and the Emax came to 95%.

For the compound `O=C(NC12CC(C(F)(F)F)(C1)C2)c1cn(-c2c(F)cc(F)cc2F)c2nc(N3C[C@@H](O)[C@H](O)C3)ccc2c1=O` [Example 371, 7-[(3R,4R)-3,4-Dihydroxypyrrolidin-1-yl]-4-oxo-N-[3-(trifluoromethyl)bicyclo[1.1.1]pent-1-yl]-1-(2,4,6-trifluorophenyl)-1,4-dihydro-1,8-naphthyridine-3-carboxamide], the “Cooperativity (alpha factor)” value at human M2 receptor [1] was found to be 36. Further, on human M2 receptor [2], the concentration for a half-maximal effect (EC50) was 18 nM.
